Assay results as given in the supplement of paper PMC10307832.

Columns and labels:
Experiment in all cases: relative viability (nuclei count vs DMSO), 5 days (fraction); higher = more cells survive
[1] = compound: CC(C)C[C@H](NC(=O)[C@H](CCc1ccccc1)NC(=O)CN1CCOCC1)C(=O)N[C@@H](Cc1ccccc1)C(=O)N[C@@H](CC(C)C)C(=O)[C@@]1(C)CO1 [Carfilzomib] + CS(=O)(=O)CCNCc1ccc(-c2ccc3ncnc(Nc4ccc(OCc5cccc(F)c5)c(Cl)c4)c3c2)o1 [Lapatinib] (partner 2 µM)
Summary of the method: (§1)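 Each reported value is a median over duplicate plates. It expresses relative viability: treated-well nuclei count divided by vehicle-well nuclei count. Lung cancer cell lines in 1536-well plates were dosed by pin tool a day after seeding, alone with one drug or with a fixed anchor-drug dose plus five library-drug doses (not always all listed) in √10 steps, and nuclei were counted after 5 days.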

[2] = compound: C[C@@H](Oc1cc(-c2cnn(C3CCNCC3)c2)cnc1N)c1c(Cl)ccc(F)c1Cl [Crizotinib] + O=C(c1cc(Cc2n[nH]c(=O)c3ccccc23)ccc1F)N1CCN(C(=O)C2CC2)CC1 [Olaparib] (partner 8 µM)
Summary of the method: as §1

[3] = compound: O=C(c1cc(Cc2n[nH]c(=O)c3ccccc23)ccc1F)N1CCN(C(=O)C2CC2)CC1 [Olaparib] + CC(=O)c1c(C)c2cnc(Nc3ccc(N4CCNCC4)cn3)nc2n(C2CCCC2)c1=O [Palbociclib] (partner 0.5 µM)
Summary of the method: as §1

[4] = compound: O=C(c1cc(Cc2n[nH]c(=O)c3ccccc23)ccc1F)N1CCN(C(=O)C2CC2)CC1 [Olaparib] + N=C(N)NC(=N)NCCc1ccccc1 [Phenformin] (partner 250 µM)
Summary of the method: as §1

Cell Line: PC-3 [JPC-3]
- relative viability ([1]; first compound 0.001 µM): 0.42
- relative viability ([1]; first compound 0.003162 µM): 0.455
- relative viability ([1]; first compound 0.01 µM): 0.463
- relative viability ([1]; first compound 0.03162 µM): 0.435
- relative viability ([1]; first compound 0.1 µM): 0.209
- relative viability ([2]; first compound 0.01 µM): 1.09
- relative viability ([2]; first compound 0.03162 µM): 1.22
- relative viability ([2]; first compound 0.1 µM): 1.13
- relative viability ([2]; first compound 1 µM): 1.12
- relative viability ([3]; first compound 0.08 µM): 0.531
- relative viability ([3]; first compound 2.53 µM): 0.52
- relative viability ([3]; first compound 8 µM): 0.534
- relative viability ([4]; first compound 0.08 µM): 0.486
- relative viability ([4]; first compound 0.253 µM): 0.458
- relative viability ([4]; first compound 2.53 µM): 0.481
- relative viability ([4]; first compound 8 µM): 0.423

Cell Line: PC-14
- relative viability ([1]; first compound 0.001 µM): 0.372
- relative viability ([1]; first compound 0.003162 µM): 0.301
- relative viability ([1]; first compound 0.01 µM): 0.317
- relative viability ([1]; first compound 0.03162 µM): 0.301
- relative viability ([1]; first compound 0.1 µM): 0.0926
- relative viability ([2]; first compound 0.01 µM): 0.274
- relative viability ([2]; first compound 0.03162 µM): 0.28
- relative viability ([2]; first compound 0.1 µM): 0.307
- relative viability ([2]; first compound 0.3162 µM): 0.401
- relative viability ([2]; first compound 1 µM): 0.289
- relative viability ([3]; first compound 0.08 µM): 0.614
- relative viability ([3]; first compound 0.253 µM): 0.401
- relative viability ([3]; first compound 2.53 µM): 0.366
- relative viability ([3]; first compound 8 µM): 0.212
- relative viability ([4]; first compound 0.08 µM): 0.79
- relative viability ([4]; first compound 0.253 µM): 0.384
- relative viability ([4]; first compound 2.53 µM): 0.609
- relative viability ([4]; first compound 8 µM): 0.519

Cell Line: RERF-LC-KJ
- relative viability ([1]; first compound 0.001 µM): 0.845
- relative viability ([1]; first compound 0.003162 µM): 0.836
- relative viability ([1]; first compound 0.01 µM): 0.894
- relative viability ([1]; first compound 0.03162 µM): 0.841
- relative viability ([1]; first compound 0.1 µM): 0.378
- relative viability ([2]; first compound 0.01 µM): 0.843
- relative viability ([2]; first compound 0.03162 µM): 0.887
- relative viability ([2]; first compound 0.1 µM): 0.928
- relative viability ([2]; first compound 0.3162 µM): 0.919
- relative viability ([2]; first compound 1 µM): 0.802
- relative viability ([3]; first compound 0.08 µM): 1.17
- relative viability ([3]; first compound 0.253 µM): 0.964
- relative viability ([3]; first compound 2.53 µM): 1.08
- relative viability ([3]; first compound 8 µM): 1.02
- relative viability ([4]; first compound 0.08 µM): 0.406
- relative viability ([4]; first compound 0.253 µM): 0.465
- relative viability ([4]; first compound 2.53 µM): 0.433
- relative viability ([4]; first compound 8 µM): 0.51

Cell Line: SK-LU-1
- relative viability ([1]; first compound 0.001 µM): 0.931
- relative viability ([1]; first compound 0.003162 µM): 0.944
- relative viability ([1]; first compound 0.01 µM): 0.729
- relative viability ([1]; first compound 0.03162 µM): 0.127
- relative viability ([1]; first compound 0.1 µM): 0.191
- relative viability ([2]; first compound 0.01 µM): 0.504
- relative viability ([2]; first compound 0.03162 µM): 0.438
- relative viability ([2]; first compound 0.1 µM): 0.451
- relative viability ([2]; first compound 0.3162 µM): 0.477
- relative viability ([2]; first compound 1 µM): 0.405
- relative viability ([3]; first compound 0.08 µM): 0.452
- relative viability ([3]; first compound 0.253 µM): 0.346
- relative viability ([3]; first compound 2.53 µM): 0.419
- relative viability ([3]; first compound 8 µM): 0.343
- relative viability ([4]; first compound 0.08 µM): 0.612
- relative viability ([4]; first compound 0.253 µM): 0.473
- relative viability ([4]; first compound 2.53 µM): 0.569
- relative viability ([4]; first compound 8 µM): 0.365

Cell Line: SK-MES-1
- relative viability ([1]; first compound 0.001 µM): 0.451
- relative viability ([1]; first compound 0.003162 µM): 0.469
- relative viability ([1]; first compound 0.01 µM): 0.443
- relative viability ([1]; first compound 0.03162 µM): 0.43
- relative viability ([1]; first compound 0.1 µM): 0.267
- relative viability ([2]; first compound 0.01 µM): 0.683
- relative viability ([2]; first compound 0.03162 µM): 0.733
- relative viability ([2]; first compound 0.1 µM): 0.761
- relative viability ([2]; first compound 0.3162 µM): 0.762
- relative viability ([2]; first compound 1 µM): 0.637
- relative viability ([3]; first compound 0.08 µM): 0.376
- relative viability ([3]; first compound 0.253 µM): 0.278
- relative viability ([3]; first compound 2.53 µM): 0.325
- relative viability ([3]; first compound 8 µM): 0.254
- relative viability ([4]; first compound 0.08 µM): 0.745
- relative viability ([4]; first compound 0.253 µM): 0.56
- relative viability ([4]; first compound 2.53 µM): 0.628
- relative viability ([4]; first compound 8 µM): 0.484

Cell Line: SW 1573
- relative viability ([1]; first compound 0.001 µM): 1.17
- relative viability ([1]; first compound 0.003162 µM): 1.22
- relative viability ([1]; first compound 0.01 µM): 1.04
- relative viability ([1]; first compound 0.03162 µM): 1.03
- relative viability ([1]; first compound 0.1 µM): 0.121
- relative viability ([2]; first compound 0.01 µM): 0.44
- relative viability ([2]; first compound 0.03162 µM): 0.459
- relative viability ([2]; first compound 0.1 µM): 0.542
- relative viability ([2]; first compound 0.3162 µM): 0.483
- relative viability ([2]; first compound 1 µM): 0.383
- relative viability ([3]; first compound 0.08 µM): 0.468
- relative viability ([3]; first compound 0.253 µM): 0.377
- relative viability ([3]; first compound 2.53 µM): 0.338
- relative viability ([3]; first compound 8 µM): 0.252
- relative viability ([4]; first compound 0.08 µM): 0.444
- relative viability ([4]; first compound 0.253 µM): 0.373
- relative viability ([4]; first compound 2.53 µM): 0.266
- relative viability ([4]; first compound 8 µM): 0.258

Cell Line: UMC-11
- relative viability ([1]; first compound 0.001 µM): 0.857
- relative viability ([1]; first compound 0.003162 µM): 1.02
- relative viability ([1]; first compound 0.01 µM): 0.783
- relative viability ([1]; first compound 0.03162 µM): 0.509
- relative viability ([1]; first compound 0.1 µM): 0.182
- relative viability ([2]; first compound 0.01 µM): 0.35
- relative viability ([2]; first compound 0.03162 µM): 0.306
- relative viability ([2]; first compound 0.1 µM): 0.375
- relative viability ([2]; first compound 0.3162 µM): 0.494
- relative viability ([2]; first compound 1 µM): 0.317
- relative viability ([3]; first compound 0.08 µM): 0.286
- relative viability ([3]; first compound 2.53 µM): 0.317
- relative viability ([3]; first compound 8 µM): 0.31
- relative viability ([4]; first compound 0.08 µM): 0.36
- relative viability ([4]; first compound 0.253 µM): 0.31
- relative viability ([4]; first compound 2.53 µM): 0.294
- relative viability ([4]; first compound 8 µM): 0.229
